# Measurements published in patent US10006057B2, “Recombinant yeast having enhanced gamma valerolactone tolerance and methods of use” (Wisconsin Alumni Research Foundation, priority 2014, dated 2018).
# Entries after “also recorded” stand apart in the source; their conditions may differ.
# Key:
# Type in all cases: cell-based, Saccharomyces cerevisiae
# [1] = system: yeast; assay: IC50 determination, growth inhibition (strain not stated at the result); settings: FIG. 6B; p<0.001
# Experimental: (§1) Compounds tested were purchased from Sigma. Cells of S. cerevisiae (MATα pdr1Δ::natMX pdr3Δ::KI.URA3 snq2Δ::KI.LEU2 can1Δ::STE2pr-Sp_his5 lyp1Δ his3Δ1 leu2Δ0 ura3Δ0 met15Δ0), referred to as control strain, were grown in 200 μl cultures at 30° C. in YPD, with a drug or DMSO control. Plates were read on a TECAN M1000 over a 48 h growth period. The specific growth rate was calculated using GCAT analysis software (available at gcat3-pub.glbrc.org on the world wide web). When presented, IC50 values for growth inhibition were calculated from triplicate 8 point dose curves and SigmaPlot 12.0. When presented, error bars are Mean±Standard error of at least 3 replicates.
# [2] = system: yeast; assay: 4-vinylphenol-GVL synergy, growth; settings: FIG. 6C; p<0.01
# [3] = system: membrane integrity of yeast cells; assay: Cell leakage assay (dye uptake, flow cytometry); settings: dye uptake after treatment; FIG. 3A, B
# Excerpt: To confirm if GVL treatment can rapidly affect cell integrity, we assessed cell permeability after GVL treatment. […] Given that both GVL and ethanol can damage cellular membranes, we also tested if these compounds are synergistic.
# A FungaLight™ cell viability assay (Invitrogen L34952) was used to determine if poacic acid caused membrane damage we used using a Guava Flow Cytometer (Millipore, USA). The population of stained cells (damaged integrity) vs non-stained cells can be determined by flow cytometry. Caspofungin (50 ng/ml) was included as a positive control. MMS and DMSO were included as a non-cell wall targeting and solvent control respectively. To test the effects of the compounds on both active and arrested cells, log-phase cultures were washed with 1×PBS and resuspended to an OD of 0.5 in either YPD media or YP (no carbon source) in the presence of the drugs (n=3) for 4 hours at 30° C. The cells were then stained and immediately read by flow cytometry. A one-way ANOVA and Tukey's test was used to calculate the difference between drug treatments among cells with arrested growth.
# [4] = system: xylose fermenting strain; assay: GVL-ethanol synergy, growth; settings: FIG. 3C
# Experimental: (§2) To test for synergy, a 6×6 dose matrix was initially used to identify potentially synergistic dose combinations, these points were then confirmed in triplicate. 200 μl cultures were grown with combinations of with poacic acid (125 μg/ml), caspofungin (12.5 ng/ml) and fluconazole (3.8 μg/ml) and the relevant single agent and solvent controls their OD measured after 24 h. Synergy was determined by comparing actual optical density in the presence of compound combinations to an expected value calculated using the multiplicative hypothesis. This assumes that, in the absence of an interaction, each compound would decrease the OD of the cell culture by the same fraction in the presence of the other compound as it does when applied alone, i.e., E=A*B/C, where E is the expected OD, A is OD when compound A is applied alone, B is OD when compound B is applied alone, and C is OD of the control culture (DMSO). In the presence of synergy, the actual OD value is lower than the expected OD. A paired t-test was used to confirm statistical significance of this difference in 3 replicates of the experiment.
# (§3) The synergistic interaction between GVL and ethanol was initially discovered using a 6-point dose matrix of the two compounds. We identified the points of the greatest synergy and perform triplicate growth curves of GLBRY-128 using a TECAN M1000 microplate reader. To confirm the GVL-R1 strain was less sensitive to the synergism between GVL and ethanol, used a 6-point dose matrix as described above with both GLBRCY-128 or GVL-R1 in a TECAN microplate reader for 48 hours at 30° C. Data from the most synergistic combination is presented (2% GVL-5% ethanol).
# [5] = system: lab strain; assay: GVL-ethanol synergy, growth; settings: FIG. 3C
# Experimental: as §2, §3
# [6] = system: Y133 pad1Δfdc1Δ; assay: IC50 / tolerance, growth inhibition; settings: FIG. 5C; p<0.01
# [7] = system: PAD1 deletion mutant in the standard lab strain background; assay: GVL IC50, growth inhibition; settings: single mutant validation; FIG. 4B
# Experimental: as §1
# [8] = system: FDC1 deletion mutant in the standard lab strain background; assay: GVL IC50, growth inhibition; settings: single mutant validation; FIG. 4B
# Experimental: as §1
# [9] = system: Y133 pad1Δfdc1Δ; assay: Growth and sugar conversion in synthetic hydrolysate with 1% GVL; settings: anaerobic, synthetic hydrolysate containing 1% GVL; FIG. 5D
# Experimental: (§4) 6 25-mL anaerobic flasks were prepared with Synthetic hydrolysate (SynH) (6% glucose/3% xylose)+1% GVL, pH 5.0. Flasks were inoculated with rinsed 133 or 133 pad1Δfdc1Δ cells to bring the initial OD to approximately 0.1. The tubes were grown for 72 hours with agitation anaerobically at 30° C. 1 mL samples were taken every 24 hours. Initial and daily samples were measured for OD and submitted for HPLC analysis to quantify sugar consumption and ethanol production.
# [10] = system: Y133 background strain; assay: as above; settings: anaerobic, synthetic hydrolysate containing 1% GVL; FIG. 5D
# Experimental: as §4
# [11] = system: Y133 + pPAD1; assay: GVL IC50, single mutant cultures; settings: FIG. 4D
# Excerpt: We wanted to extend our chemical genomic analysis to industrially an industrially relevant, xylose ferment yeast strain. Presently there are no available genome-wide deletion mutant collections in industrial yeast, so we took a complementary approach. The MoBY-ORF 2.0 plasmid collection is with barcoded versions of 95% of all S. cerevisiae genes each expressed on a 2μ plasmid. This collection of plasmids can be pooled and transformed into any yeast to allow investigations of the effect of gene dose under stress conditions. We transformed a version of the xylose-fermenting yeast GLBRC-Y133 [15] en masse with the pooled plasmid collection and selected over 50K individual transformants (10× genome coverage). We grew this pooled transformant collection in the presence of 2.5% GVL or a water control under anaerobic conditions in glucose/xylose containing media and assessed the effects of increased gene dose on growth in the presence of GVL. We found the Pad1p overexpression mutant was one of the top sensitive strains (p<0.01, FIG. 4C). […]
# (§5) Compounds tested were purchased from Sigma. […] Plates were read on a TECAN M1000 over a 48 h growth period. The specific growth rate was calculated using GCAT analysis software (available at gcat3-pub.glbrc.org on the world wide web). When presented, IC50 values for growth inhibition were calculated from triplicate 8 point dose curves and SigmaPlot 12.0. […]
# [12] = system: deletion mutants of SEC28, VPS38, DID2; assay: Single mutant validation of GVL sensitivity; settings: single mutant cultures; FIG. 2C
# Excerpt: Among the top 10 sensitive deletion mutants, we found significant enrichment for genes involved in late endosome to vacuole transport (p<0.01, FIG. 2B), driven by deletion mutants of SEC28, VPS38, DID2. […] Deletion mutants of these 3 genes have increased sensitivity to ethanol, heat, and membrane disrupting agents such as miconazole and nigercin. When we correlated the chemical genomic profile of GVL with the yeast genetic interaction network, we found significant enrichment for genes involved in golgi-vesicle mediated transport among the top 10 correlations (p=0.001). RET2 was consistently predicted as the top correlation for the GVL chemical genomic profile. Ret2p is a subunit of the coatomer complex involved in retrograde transport between Golgi and ER is also involved in golgi transport of vesicles. RET2 mutants similarity show increased sensitivity to heat and membrane disrupting agents.
# as §5
# [13] = system: S. cerevisiae; assay: 8 point dose curve for chemical genomic profiling; settings: YP-galactose media, 24 hours of growth
# Experimental: Chemical genomic analysis of poacic acid was performed as described as described previously. The tested yeast deletion collection had ˜4000 strains using the genetic background described in Andrusiak (2012). The optimal inhibitory concentration of poacic acid for chemical genomic profiling (70-80% growth versus solvent control in YP-galactose media after 24 hours of growth) was determined using an 8 point dose curve. A concentration of 88 μg/ml inhibited growth within this range. 200 μl cultures of the pooled, deletion collection of S. cerevisiae deletion mutants were grown with 88 μg/ml poacic acid or a DMSO control in triplicate for 48 h at 30° C. Genomic DNA was extracted using the Epicentre MasterPure™ Yeast DNA purification kit. Mutant-specific molecular barcodes were amplified with specially designed multiplex primers. The barcodes were sequenced using an Illumina MiSeq. 3 replicates of each condition (poacic acid vs DMSO) were sequenced. One DMSO control was lost due to poor sequencing reads. The barcode counts for each yeast deletion mutant in the presence of poacic acid were normalized against the DMSO control conditions to define sensitivity or resistance of individual strains. To determine a p-value for each top sensitive and resistant mutant, we used the EdgeR package. […]
molecule,measurement,setting,value
C=Cc1ccc(O)cc1 [4-vinylphenol],IC50 / toxicity of 4-vinylphenol relative to coumaric acid,[1],significantly more toxic; also recorded: an order of magnitude lower
same,synergistic interaction between 4-vinylphenol and GVL,[2],significantly synergistic; also recorded: statistically significant synergistic interaction
"CC1CCC(=O)O1 (centres unmarked) [GVL, gamma valerolactone]",GVL concentration at which loss of membrane integrity is apparent,[3],2.5%
same,synergistic interaction between GVL and ethanol,"[4]; 1% GVL and 4% ethanol, p<0.01",significantly synergistic; also recorded: significant synergistic interaction
same,synergism between GVL and ethanol,[4]; xylose fermenting strain,strong synergism
same,synergism between GVL and ethanol,[5],strong synergism
same,IC50 concentration / tolerance of GVL versus Y133 background,[6],significantly greater; also recorded: significantly higher
same,GVL tolerance of deletion mutant,[7],more tolerant; also recorded: improved GVL tolerance
same,GVL tolerance of deletion mutant,[8],more tolerant; also recorded: improved GVL tolerance
same,"growth, sugar consumption and ethanol production in presence of GVL",[9],"faster growth, sugar consumption, and ethanol production; also recorded: grew, consumed sugars, and produced ethanol"
same,"growth, sugar consumption and ethanol production in presence of GVL",[10],did not
same,GVL tolerance with increased expression of PAD1,[11],significantly reduced GVL tolerance
same,GVL IC50 / sensitivity compared to the control strain,[12],significantly more sensitive; also recorded: lower IC50
poacic acid,concentration giving 70-80% growth versus solvent control,[13],88 µg/mL
